Active and inactive are the calls of the source. The rule behind the calls is not given here.
What was measured:
Aspergillus niger [1] = assay: Antifungal activity against Aspergillus niger MTCC 1108 at 160 uM/ml after 48 hrs by paper disc diffusion method; format: functional
Trichoderma viride [2] = assay: Antifungal activity against Trichoderma viride MTCC 1107 at 20 uM/ml after 48 hrs by paper disc diffusion method; format: functional
Trichoderma viride [3] = assay: Antifungal activity against Trichoderma viride MTCC 1107 at 40 uM/ml after 48 hrs by paper disc diffusion method; format: functional; details: for zone of inhibition: MTCC 1107, 48 h, read-out: IZ
Aspergillus niger [4] = assay: Antifungal activity against Aspergillus niger MTCC 1108 after 48 hrs by poison food method; format: functional
Trichoderma viride [5] = assay: Antifungal activity against Trichoderma viride MTCC 1107 at 80 uM/ml after 48 hrs by paper disc diffusion method; format: functional; details: for zone of inhibition at 80 µM: MTCC 1107, 48 h, read-out: IZ
Curvularia lunata [6] = assay: Antifungal activity against Curvularia lunata MTCC 581 at 80 uM/ml after 48 hrs by paper disc diffusion method; format: functional; details: MTCC 581, 48 h, read-out: IZ
Trichoderma viride [7] = assay: Antifungal activity against Trichoderma viride MTCC 1107 at 160 uM/ml after 48 hrs by paper disc diffusion method; format: functional; details: MTCC 1107, 48 h, read-out: IZ
Curvularia lunata [8] = assay: Antifungal activity against Curvularia lunata MTCC 581 at 20 uM/ml after 48 hrs by paper disc diffusion method; format: functional
Curvularia lunata [9] = assay: Antifungal activity against Curvularia lunata MTCC 581 at 40 uM/ml after 48 hrs by paper disc diffusion method; format: functional; details: for zone of inhibition at 40 µM: MTCC 581, 48 h, read-out: IZ
Aspergillus flavus [10] = assay: Antifungal activity against Aspergillus flavus MTCC 1021 at 160 uM/ml after 48 hrs by paper disc diffusion method; format: functional
Curvularia lunata [11] = assay: Antifungal activity against Curvularia lunata MTCC 581 at 160 uM/ml after 48 hrs by paper disc diffusion method; format: functional; details: MTCC 581, 48 h, read-out: IZ
QG-56 = assay: Cytotoxicity against human QG56 cells after 48 hrs by MTT assay; format: functional, cell-based
Staphylococcus aureus [12] = assay: Antibacterial activity against Staphylococcus aureus ATCC 11632 at 160 uM/ml after 24 hrs by kirby-bauer method; format: functional
Escherichia coli [13] = assay: Antibacterial activity against Escherichia coli ATCC 35218 at 20 uM/ml after 24 hrs by kirby-bauer method; format: functional
Escherichia coli [14] = assay: Antibacterial activity against Escherichia coli ATCC 35218 at 40 uM/ml after 24 hrs by kirby-bauer method; format: functional
Salmonella typhimurium [15] = assay: Antibacterial activity against Salmonella typhimurium ATCC 23564 at 160 uM/ml after 24 hrs by kirby-bauer method; format: functional, Salmonella enterica subsp. enterica serovar Typhimurium; details: Salmonella enterica, ATCC 23564, 24 h; read-out: IZ
[16] = test system: Burkholderia pseudomallei; assay: Antibacterial activity against Burkholderia pseudomallei NTCC 10274 at 80 uM/ml after 24 hrs by kirby-bauer method; format: functional; details: NTCC 10274, 24 h, read-out: IZ
Salmonella typhimurium [17] = assay: Antibacterial activity against Salmonella typhimurium ATCC 23564 at 20 uM/ml after 24 hrs by kirby-bauer method; format: functional; details: Salmonella enterica subsp. enterica serovar Typhimurium
[18] = test system: Burkholderia pseudomallei; assay: Antibacterial activity against Burkholderia pseudomallei NTCC 10274 at 20 uM/ml after 24 hrs by kirby-bauer method; format: functional
Pseudomonas aeruginosa [19] = assay: Antibacterial activity against Pseudomonas aeruginosa ATCC 15499 at 160 uM/ml after 24 hrs by kirby-bauer method; format: functional; details: ATCC 15499, 24 h, read-out: IZ
Pseudomonas aeruginosa [20] = assay: Antibacterial activity against Pseudomonas aeruginosa ATCC 15499 at 40 uM/ml after 24 hrs by kirby-bauer method; format: functional
Aspergillus flavus [21] = assay: Antifungal activity against Aspergillus flavus MTCC 1021 after 48 hrs by poison food method MTCC 1021; format: functional
Escherichia coli [22] = assay: Antibacterial activity against Escherichia coli ATCC 35218 at 160 uM/ml after 24 hrs by kirby-bauer method; format: functional; details: ATCC 35218, 24 h, read-out: IZ
Salmonella typhimurium [23] = assay: Antibacterial activity against Salmonella typhimurium ATCC 23564 at 80 uM/ml after 24 hrs by kirby-bauer method; format: functional, Salmonella enterica subsp. enterica serovar Typhimurium; details: Salmonella enterica, ATCC 23564, 24 h; read-out: IZ
[24] = test system: Burkholderia pseudomallei; assay: Antibacterial activity against Burkholderia pseudomallei NTCC 10274 at 40 uM/ml after 24 hrs by kirby-bauer method; format: functional
Escherichia coli [25] = assay: Antibacterial activity against Escherichia coli ATCC 35218 at 80 uM/ml after 24 hrs by kirby-bauer method; format: functional; details: ATCC 35218, 24 h, read-out: IZ
Salmonella typhimurium [26] = assay: Antibacterial activity against Salmonella typhimurium ATCC 23564 at 40 uM/ml after 24 hrs by kirby-bauer method; format: functional, Salmonella enterica subsp. enterica serovar Typhimurium
[27] = test system: Burkholderia pseudomallei; assay: Antibacterial activity against Burkholderia pseudomallei NTCC 10274 at 160 uM/ml after 24 hrs by kirby-bauer method; format: functional; details: NTCC 10274, 24 h, read-out: IZ
Pseudomonas aeruginosa [28] = assay: Antibacterial activity against Pseudomonas aeruginosa ATCC 15499 at 80 uM/ml after 24 hrs by kirby-bauer method; format: functional; details: ATCC 15499, 24 h, read-out: IZ
Pseudomonas aeruginosa [29] = assay: Antibacterial activity against Pseudomonas aeruginosa ATCC 15499 at 20 uM/ml after 24 hrs by kirby-bauer method; format: functional
Staphylococcus aureus [30] = assay: Antibacterial activity against Staphylococcus aureus ATCC 11632 at 20 uM/ml after 24 hrs by kirby-bauer method; format: functional; details: ATCC 11632, 24 h, read-out: IZ
Aspergillus flavus [31] = assay: Antifungal activity against Aspergillus flavus MTCC 1021 at 40 uM/ml after 48 hrs by paper disc diffusion method; format: functional
Aspergillus niger [32] = assay: Antifungal activity against Aspergillus niger MTCC 1108 at 80 uM/ml after 48 hrs by paper disc diffusion method; format: functional
Aspergillus niger [33] = assay: Antifungal activity against Aspergillus niger MTCC 1108 at 40 uM/ml after 48 hrs by paper disc diffusion method; format: functional
Aspergillus flavus [34] = assay: Antifungal activity against Aspergillus flavus MTCC 1021 at 80 uM/ml after 48 hrs by paper disc diffusion method; format: functional; details: MTCC 1021, 48 h, read-out: IZ
Aspergillus niger [35] = assay: Antifungal activity against Aspergillus niger MTCC 1108 at 20 uM/ml after 48 hrs by paper disc diffusion method; format: functional
Staphylococcus aureus [36] = assay: Antibacterial activity against Staphylococcus aureus ATCC 11632 at 80 uM/ml after 24 hrs by kirby-bauer method; format: functional; details: ATCC 11632, 24 h, read-out: IZ
Aspergillus flavus [37] = assay: Antifungal activity against Aspergillus flavus MTCC 1021 at 20 uM/ml after 48 hrs by paper disc diffusion method; format: functional
Staphylococcus aureus [38] = assay: Antibacterial activity against Staphylococcus aureus ATCC 11632 at 40 uM/ml after 24 hrs by kirby-bauer method; format: functional; details: ATCC 11632, 24 h, read-out: IZ

OC(Cn1cncn1)(Cn1cncn1)c1ccc(F)cc1F [FLUCONAZOLE]
inhibition zone (IZ) (Aspergillus niger [1]): inactive | zone of inhibition at 20 µM (Trichoderma viride [2]; MTCC 1107, 48 h, read-out: IZ): 21 mm | zone of inhibition (Trichoderma viride [3]): 24 mm | MIC (Aspergillus niger [4]): inactive | zone of inhibition at 80 µM (Trichoderma viride [5]): 29 mm | zone of inhibition at 80 µM (Curvularia lunata [6]): 28 mm | zone of inhibition at 160 µM (Trichoderma viride [7]): 32 mm | zone of inhibition at 20 µM (Curvularia lunata [8]; MTCC 581, 48 h, read-out: IZ): 24 mm | zone of inhibition at 40 µM (Curvularia lunata [9]): 27 mm | inhibition zone (IZ) (Aspergillus flavus [10]): inactive | zone of inhibition at 160 µM (Curvularia lunata [11]): 31 mm

COc1cc(/C=C/C(=O)CC(=O)/C=C/c2ccc(O)c(OC)c2)ccc1O [CURCUMIN]
IC50 (QG-56): 100 uM/ml | inhibition zone (IZ) (Staphylococcus aureus [12]): inactive | IC50 (HepG2): 50 uM/ml | inhibition zone (IZ) (Escherichia coli [13]): inactive | inhibition zone (IZ) (Escherichia coli [14]): inactive | inhibition zone (IZ) (Aspergillus niger [1]): inactive | inhibition zone (IZ) (Trichoderma viride [2]): inactive | zone of inhibition at 160 µM (Salmonella typhimurium [15]): 12 mm | zone of inhibition at 80 µM [16]: 8 mm | inhibition zone (IZ) (Salmonella typhimurium [17]): inactive | inhibition zone (IZ) [18]: inactive | zone of inhibition at 160 µM (Pseudomonas aeruginosa [19]): 11 mm | inhibition zone (IZ) (Pseudomonas aeruginosa [20]): inactive | inhibition zone (IZ) (Trichoderma viride [3]): inactive | MIC (Aspergillus niger [4]): inactive | MIC (Aspergillus flavus [21]): inactive | inhibition zone (IZ) (Trichoderma viride [5]): inactive | zone of inhibition at 160 µM (Escherichia coli [22]): 10 mm | IC50 (HCT-116): 50 uM/ml | zone of inhibition at 80 µM (Salmonella typhimurium [23]): 10 mm | zone of inhibition at 80 µM (Curvularia lunata [6]): 9 mm | zone of inhibition at 160 µM (Trichoderma viride [7]): 9 mm | inhibition zone (IZ) (Curvularia lunata [8]): inactive | inhibition zone (IZ) [24]: inactive | zone of inhibition at 80 µM (Escherichia coli [25]): 8 mm | inhibition zone (IZ) (Curvularia lunata [9]): inactive | zone of inhibition at 40 µM (Salmonella typhimurium [26]; Salmonella enterica, ATCC 23564, 24 h, read-out: IZ): 9 mm | zone of inhibition at 160 µM [27]: 9 mm | zone of inhibition at 80 µM (Pseudomonas aeruginosa [28]): 9 mm | inhibition zone (IZ) (Pseudomonas aeruginosa [29]): inactive | inhibition zone (IZ) (Aspergillus flavus [10]): inactive | zone of inhibition at 160 µM (Curvularia lunata [11]): 11 mm

COc1cc(/C=C/C(=O)C2=C(/C=C/c3ccc(O)c(OC)c3)NC(=O)NC2c2ccccc2)ccc1O (configuration not stated)
IC50 (QG-56): 50 uM/ml | zone of inhibition at 20 µM (Staphylococcus aureus [30]): 14 mm | zone of inhibition at 160 µM (Staphylococcus aureus [12]; ATCC 11632, 24 h, read-out: IZ): 22 mm | IC50 (HepG2): 50 uM/ml | inhibition zone (IZ) (Escherichia coli [13]): inactive | inhibition zone (IZ) (Escherichia coli [14]): inactive | zone of inhibition at 160 µM (Aspergillus niger [1]; MTCC 1108, 48 h, read-out: IZ): 9 mm | inhibition zone (IZ) (Trichoderma viride [2]): inactive | zone of inhibition at 160 µM (Salmonella typhimurium [15]): 11 mm | zone of inhibition at 80 µM [16]: 17 mm | inhibition zone (IZ) (Salmonella typhimurium [17]): inactive | inhibition zone (IZ) (Aspergillus flavus [31]): inactive | zone of inhibition at 20 µM ([18]; NTCC 10274, 24 h, read-out: IZ): 14 mm | zone of inhibition at 160 µM (Pseudomonas aeruginosa [19]): 14 mm | zone of inhibition at 40 µM (Pseudomonas aeruginosa [20]; ATCC 15499, 24 h, read-out: IZ): 9 mm | zone of inhibition (Trichoderma viride [3]): 9 mm | zone of inhibition at 80 µM (Trichoderma viride [5]): 11 mm | inhibition zone (IZ) (Aspergillus niger [32]): inactive | zone of inhibition at 160 µM (Escherichia coli [22]): 17 mm | IC50 (HCT-116): 25 uM/ml | zone of inhibition at 80 µM (Salmonella typhimurium [23]): 8 mm | zone of inhibition at 80 µM (Curvularia lunata [6]): 12 mm | zone of inhibition at 160 µM (Trichoderma viride [7]): 14 mm | inhibition zone (IZ) (Curvularia lunata [8]): inactive | inhibition zone (IZ) (Aspergillus niger [33]): inactive | zone of inhibition at 40 µM ([24]; NTCC 10274, 24 h, read-out: IZ): 16 mm | zone of inhibition at 80 µM (Escherichia coli [25]): 9 mm | zone of inhibition at 40 µM (Curvularia lunata [9]): 9 mm | inhibition zone (IZ) (Salmonella typhimurium [26]; Salmonella enterica subsp. enterica serovar Typhimurium): inactive | zone of inhibition at 160 µM [27]: 19 mm | zone of inhibition at 80 µM (Aspergillus flavus [34]): 9 mm | inhibition zone (IZ) (Aspergillus niger [35]): inactive | zone of inhibition at 80 µM (Pseudomonas aeruginosa [28]): 12 mm | zone of inhibition at 80 µM (Staphylococcus aureus [36]): 19 mm | inhibition zone (IZ) (Pseudomonas aeruginosa [29]): inactive | zone of inhibition at 160 µM (Aspergillus flavus [10]; MTCC 1021, 48 h, read-out: IZ): 11 mm | inhibition zone (IZ) (Aspergillus flavus [37]): inactive | zone of inhibition at 160 µM (Curvularia lunata [11]): 18 mm | zone of inhibition at 40 µM (Staphylococcus aureus [38]): 17 mm
